Among the data in ChEMBL document CHEMBL1157685, “Biotransformation of isoimperatorin and imperatorin by Glomerella cingulata and beta-secretase inhibitory activity” (Bioorg Med Chem, 2010) are Kic, IC50 and inhibition values, retold here.

Structures are written as SMILES. Activity calls are given as the source filed them. The rule behind the calls is not given here.

Experiment [1] addresses T1, Beta-secretase 1 (Homo sapiens, UniProt P56817).
Description: Competitive inhibition of human recombinant BACE1 by Lineweaver-Burke plot analysis
The target in experiment [2] is T1, Beta-secretase 1. The experiment is described as follows: Inhibition of human recombinant BACE1 after 60 mins by fluorescence assay.
The target in experiment [3] is T1, Beta-secretase 1. The experiment is described as follows: Inhibition of human recombinant BACE1 at 100 to 500 uM after 60 mins by fluorescence assay.

T1 sequence (P56817 whole entry): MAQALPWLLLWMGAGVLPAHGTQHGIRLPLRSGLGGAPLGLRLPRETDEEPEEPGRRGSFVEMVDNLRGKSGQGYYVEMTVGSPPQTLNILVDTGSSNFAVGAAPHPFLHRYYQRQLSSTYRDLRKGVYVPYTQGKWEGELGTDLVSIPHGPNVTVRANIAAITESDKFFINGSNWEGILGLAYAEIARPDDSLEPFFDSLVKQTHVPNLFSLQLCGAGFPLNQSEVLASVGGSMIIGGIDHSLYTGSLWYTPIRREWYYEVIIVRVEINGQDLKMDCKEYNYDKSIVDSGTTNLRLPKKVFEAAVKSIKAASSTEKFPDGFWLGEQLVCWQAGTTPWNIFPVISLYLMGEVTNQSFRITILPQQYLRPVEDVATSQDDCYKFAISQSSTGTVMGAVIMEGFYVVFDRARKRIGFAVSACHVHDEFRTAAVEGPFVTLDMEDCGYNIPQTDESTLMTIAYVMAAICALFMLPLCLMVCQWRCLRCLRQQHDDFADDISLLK

At Beta-secretase 1 [1], `COC(=O)CCc1c(O)cc2occc2c1OCC=C(C)C` registered a Kic of 11.3 µM. Moreover, at Beta-secretase 1 [2], the IC50 is 30.5 µM and the inhibition entry is “Dose-dependent effect”.
Consider `CC(C)=CCOc1c(CCC(=O)O)c(O)cc2occc12`, for which, at Beta-secretase 1 [2], the concentration for half-maximal inhibition (IC50) is 186 µM and the inhibition entry is “Dose-dependent effect”.
In the case of `O=c1ccc2cc3ccoc3c(O)c2o1`, the inhibition result at Beta-secretase 1 [3] was “inactive”. Moreover, the inhibition entry at Beta-secretase 1 [2] was “Dose-dependent effect”.
As to `CC(C)=CCOc1c2occc2cc2ccc(=O)oc12` [PENTOSALEN], at Beta-secretase 1 [2], the IC50 came out at 91.8 µM and the inhibition entry was “Dose-dependent effect”.
In the case of `COC(=O)CCc1c(OC)cc2occc2c1OCC=C(C)C`, at Beta-secretase 1 [2], the IC50 is 16.2 µM and the inhibition entry was “Dose-dependent effect”.
In the case of `COc1cc2occc2c(OCC=C(C)C)c1CCC(=O)O`, at Beta-secretase 1 [2], the IC50 was found to be 203 µM and the inhibition entry is “Dose-dependent effect”.
For `CC(C)=CCOc1c2ccoc2cc2oc(=O)ccc12` [ISOIMPERATORIN], at Beta-secretase 1 [2], the IC50 is 244 µM and the inhibition result was “Dose-dependent effect”.

In general, IC50 refers to the concentration needed to halve the response being measured.
